In US11649245B2, “Cyclopropylamine compound as LSD1 inhibitor and use thereof” (HELIOEAST PHARMACEUTICAL CO., LTD., priority 2018, dated 2023):
Counter-ions that a name gives are not always drawn.

Legend:
human LSD1 = human LSD1 (Homo sapiens, UniProt O60341); test: In vitro enzyme activity screening against LSD1 (HRP/Amplex Red fluorescence coupling enzyme method); format: biochemical; conditions: human LSD1, histone H3K4me peptide substrate 20 μM
Protocol: The purpose of this test was to detect the in vitro inhibitory activity of the compounds against LSD1. The enzyme used in this test was human LSD1, the standard substrate was histone H3K4me peptide (20 μM), the fluorescence coupling enzyme method was used to determine the activity of the compound by combining horseradish peroxidase (HRP) and fluorescent reagent Amplex Red to detect the H2O2 generation as a result of the reaction of LSD1. Compounds were tested in 10-dose IC50 mode with a 3-fold serial dilution starting at 10 μM. The enzyme and […] to start the reaction. Fluorescence detector: Envision, excitation wavelength: Ex/Em=530/590 […]

NCI-H1417 cells = test: Antiproliferation activity on NCI-H1417 cells (CellTiter-Glo, 10 days); format: cell-based, human; conditions: Homo sapiens, NCI-H1417, 240 h, incubated for 10 days
Protocol: Experimental purpose: to detect the antiproliferation activity of the compounds on NCI-H1417 cells.
Experimental materials: RPMI 1640 culture medium, fetal bovine serum, Promega CellTiter-Glo reagent. NCI-H1417 cell line purchased from ATCC. Envision multi-label reader (PerkinElmer).
Experimental method: the compounds were dissolved to 10 mM, then the compounds were diluted 5 times with DMSO in a compound plate, the compounds were diluted 3-fold with Bravo from a starting concentration of 2 mM to the 10th concentration, 250 nL of the solutions were transferred to the upper and lower duplicate wells on a blank 384 cell plate by Echo transfer plate, cell suspension of per well/1000 cells/50 μL was added to the transferred 250 nL DMSO/compound, the compounds were diluted 200-fold, i.e., the initial action concentration was 10 μM. The cell plate was placed in a carbon dioxide incubator and incubated for 10 days. 25 μL of Promega CellTiter-Glo reagent was added to each well on the cell plate and was shaken at room temperature for 10 minutes to stabilize the luminescence signal. Readings were performed by PerkinElmer Envision multi-label analyzer.
Data analysis: the equation (Max-Ratio)/(Max-Min)*100% was used to convert the original data into the inhibition rate, the value of IC50 can be obtained by curve fitting of four-parameters (the 205 mode in XLFITS, iDBS).

HL60 cells = test: Antiproliferation activity on HL60 cells (CellTiter-Glo, 6 days); format: cell-based; conditions: Homo sapiens, HL-60, 144 h, incubated for 6 days
From the text: Experimental purpose: to detect the antiproliferation activity of the compound to be tested on HL60 cells.
(§1) Experimental materials: RPMI-1640 culture medium, fetal bovine serum, penicillin/streptomycin antibiotics purchased from Wisent. CellTiter-Glo (chemiluminescent cell viability assay reagent) reagents purchased from Promega. HL60 cell line purchased from Nanjing Cobioer Co., Ltd. Nivo multi-label reader (PerkinElmer).
Experimental method: HL60 cells were planted in a white 384-well plate, 40 μL of cell suspension per well, 600 HL60 cells were contained therein. The cell plate was placed in a carbon dioxide incubator for overnight culture. The compounds to be tested were diluted 5-fold with a pipet until the 10th concentration, i.e., diluted from 2 mM to 1.024 nM, double duplicate well experiment was set. 78 μL of the culture medium was added to an intermediate plate, and then 2 μL per well of the serially diluted compounds were transferred to the corresponding positions on the intermediate plate, after mixing, 10 μL per well was transferred to the cell plate. The cell plate was incubated in a carbon dioxide incubator for 6 days. Another cell plate was prepared and the signal value on the day of dosing was read as the maximum value (Max value in the equation below) to participate in the data analysis. 20 μL of chemiluminescent cell viability assay reagent was added to each well of this cell plate, which was incubated at room temperature for 10 minutes to stabilize the luminescence signal. The multi-label reader was used for reading.
(§2) Data analysis: the equation (Sample-Min)/(Max-Min)*100% was used to convert the original data into the inhibition rate, the IC50 value can be obtained by curve fitting of four-parameters (“log(inhibitor) vs. response—Variable slope” mode in GraphPad Prism)).

MV-4-11 cells = test: Antiproliferation activity on MV-4-11 cells (CellTiter-Glo, 6 days); format: cell-based; conditions: Homo sapiens, MV4-11, 144 h, incubated for 6 days
From the text: Experimental purpose: to detect the antiproliferation activity of the compound to be tested on MV-4-11 cells.
as §1, with “IMDM” for “RPMI-1640”, “MV-4-11” for “HL60”, “line was” for “line”, “Multi-Marker Analyzer” for “multi-label reader”
Experimental method: MV-4-11 cells were planted in a white 96-well plate, 80 μL of cell suspension per well, which contained 6000 MV-4-11 cells. The cell plate was placed in a carbon dioxide incubator for overnight culture.
The compounds to be tested were diluted 5-fold with a pipet until the 8th concentration, i.e., diluted from 2 mM to 25.6 nM, double duplicate well experiment was set. 78 μL of the culture medium was added to an intermediate plate, and then 2 μL per well of the serially diluted compounds were transferred to the corresponding positions on the intermediate plate, after mixing, 20 μL per well was transferred to the cell plate. The cell plate was incubated in a carbon dioxide incubator for 6 days. Another cell plate was prepared and the signal value on the day of dosing was read as the maximum value (Max value in the equation below) to participate in the data analysis. 25 μL of the chemiluminescent cell viability assay reagent was added to each well of this cell plate, which was incubated at room temperature for 10 minutes to stabilize the luminescence signal. The multi-label analyzer was used for reading.
as §2

[1] = system: human small cell lung cancer NCI-H1417 xenograft tumor model; test: In vivo pharmacodynamic study on NCI-H1417 subcutaneous xenograft tumor in CB-17 SCID mice; conditions: compound 6 hydrochloride 1.5 mg/kg oral once a day, cisplatin 1 mg/kg i.p. twice a week
Protocol: The purpose of the experiment was to evaluate the in vivo efficacy of the compounds of the present disclosure on subcutaneous xenograft tumor of human small cell lung cancer NCI-H1417 cells in a CB-17 SCID mouse model.
Human small cell lung cancer NCI-H1417 cells (ATCC) were cultured in vitro in a single layer, the culture conditions were RPMI-1640 culture medium supplemented with 10% fetal bovine serum, 37° C. 5% CO2. When the cell saturation reached 80%-90%, the cells were collected, counted, and inoculated.
0.2 mL of 10×10^6 NCI-H1417 cells were subcutaneously inoculated into the right back of each mouse (PBS: Matrigel=1:1). Group administration was started when the average volume reached 100-150 mm^3.
The vehicle used in the experiment was 0.5% methylcellulose solution, the preparation method was: 5 g of methylcellulose was weighed and dissolved in 800 mL ultrapure water, stirred evenly and made up to 1000 mL with ultrapure water. The test substance was dissolved in a solvent and prepared into a uniform solution of a certain concentration, and stored at 4° C.
Cisplatin (Cisplatin, manufacturer Qilu Pharmaceutical Co., Ltd., 10 mg/bottle freeze-dried powder for injection, lot number 7D011A8) was added to 10 mL 0.9% NaCl to make a 1 mg/mL mother liquor, and stored at room temperature and protected from light. The mother liquor was aliquoted into 0.63 mL and stored at room temperature. 5.67 mL 0.9% NaCl was added to one of the 0.63 mL mother liquor to make a 0.1 mg/mL solution.
The experimental indicator is to investigate whether tumor growth was inhibited, delayed, or cured. Tumor diameters were measured with a vernier caliper twice a week. The tumor volume was calculated by the calculation formula: V=0.5a×b^2, a and b respectively represent the long and short diameters of the tumor.
The anti-tumor effect of the compounds was evaluated by TGI (%). TGI (%) can reflect the tumor growth inhibition rate. TGI (%) calculation: TGI (%)=[1-(the average tumor volume at the end of the administration in a treatment group—the average tumor volume at the beginning of the administration in the treatment group)/(the average tumor volume at the end of the treatment of the solvent control group—the average tumor volume at the beginning of the treatment of the solvent control group)]×100%.

Row | Compound | IC50 (human LSD1) [nM] | IC50 (NCI-H1417 cells) [nM] | IC50 (HL60 cells) [nM] | IC50 (MV-4-11 cells) [nM] | Tumor volume mean ± SEM (28th day) ([1]; CB-17 SCID mice) [mm^3] | TGI ([1]; tumor growth inhibition rate, 28th day) [%]
1 | N#Cc1ccc(CN2CCC3(CC2)CC(N[C@@H]2C[C@H]2c2ccccc2)CO3)cc1 (some centres unmarked) [Hydrochloride of the compound 21] | 92.2 | 1.12 | 1.17 | 0.46 | – | –
2 | O=C(O)c1ccc(CCN2CCC3(CC2)CC(N[C@@H]2C[C@H]2c2ccccc2)CO3)cc1 (some centres unmarked) [Hydrochloride of the compound 19] | 208 | 6.95 | 1.46 | 4.41 | – | –
3 | O=C(O)c1ccc2cc(CN3CCC4(CC3)CC(N[C@@H]3C[C@H]3c3ccccc3)CO4)ccc2c1 (some centres unmarked) [Hydrochloride of the compound 17] | 70.6 | 0.65 | 0.78 | 2.86 | – | –
4 | N.N.[Cl][Pt][Cl] [Cisplatin, reference compound] | – | – | – | – | 165 ± 22 | 85.9
